Assay results taken from patent US10918731B2, “HSP90 inhibitory peptide conjugate and application thereof in treating tumor” (INSTITUTE OF BASIC MEDICAL SCIENCES, CHINESE ACADEMY OF …, priority 2015, dated 2021).
Ends that are not written are not given here. Peptide text beside a SMILES is read from it.

Legend:
[1] = tested on: Lung adenocarcinoma A549 cells; experiment: CCK-8 cytotoxicity, lung adenocarcinoma A549 cells; assay type: cell-based; conditions: human, 48 h
Protocol: (§1) Lung adenocarcinoma A549, breast cancer MCF-7S and melanoma A375 cells were diluted respectively to 3×10^4 cells/ml and pipetted to 96-well plate with 100 μl in each well. Twenty-four hours later, 5, 20, 80 or 320 nM DTX-P7, Paclitaxel-heptapeptide conjugate (PTX-P7), Doxorubicin-NH2-heptapeptide conjugate (DOX-P7) and Doxorubicin-OH-heptapeptide conjugate (DOX-OH-P7) were added to the wells and incubated for 48 h. Then 10 μl CCK-8 was added and measured 1.5 h later at 450 nm to calculate the viability and median inhibitory concentration IC50.

[2] = tested on: breast cancer MCF-7S cells; experiment: CCK-8 cytotoxicity, breast cancer MCF-7S cells; assay type: cell-based; conditions: human, 48 h
Protocol: as §1

[3] = tested on: melanoma A375 cells; experiment: CCK-8 cytotoxicity, melanoma A375 cells; assay type: cell-based; conditions: human, 48 h
Protocol: as §1

[4] = tested on: tumor cell; experiment: Autophagy: autophagosome and expression of autophagy related proteins (Beclin 1, LC3); assay type: cell-based; conditions: 6 h; for expression of autophagic Beclin1 and LC3, single agent: agent alone
Protocol: The cells were seeded and cultured. Targeting peptide was diluted with culture medium. Appropriate concentration of DTX was also prepared for the seeded cells. Equivalent culture medium was added as negative control group; 1×10^−9 M targeting peptide solution was added as Peptide group; 10^−9 M DTX was added as DTX group; 10^−9 M targeting peptide and […] were added as combination group (DTX+P). The cells were incubated at 37° C., 5% CO2 for 6 h to analyze the autophagosome. Protein was extracted to measured expression of autophagy related proteins.

[5] = tested on: A549 cell xenograft; experiment: Human non-small cell lung cancer A549 xenograft nude mice model, tumor growth; assay type: in vivo, BALB/c nu/nu female nude mice; conditions: 10 mg/kg based on DTX, intraperitoneal, once a week, four injections
Protocol: A549 cell, a non-small cell lung cancer cell line, growing in logarithmic phase were collected and gently pipetted with 1 ml F-12K media containing […] to prepare the single cell suspension, which was consequently counted with appropriate dilution. The cell suspension was mixed with Matrigel (1:3) under ice bath. The concentration of the cell suspension was adjusted to 8×10^6 cells/ml and stored at 0° C. before transplantation.
Thirty BALB/c nu/nu female nude mice (16 g) were acclimated to the environment for 1 week before the formal experiment. […]
The mice were frequently observed and tumor volume was measured with a Vernier caliper, the volume was calculated by the equation (long diameter×short diameter^2) (½), when tumor reaching a size of 100 mm^3, mice were divided into 4 groups: (1) Saline (control), (2) DTX, (3) TN-DTX and (4) DTX-P7.
Next day after animal grouping, agents were administrated via intraperitoneal injection once a week for a total of four injections. The first administrated day was recorded as Day 0 and the other administrated days were respectively recorded as Day 7, Day 14, Day 21. […]
The mice were measured and weighted every two times a week. Tumor dimensions were measured using calipers. […]

[6] = tested on: tumor cell; experiment: Apoptosis by Annexin V method and Western blotting of apoptosis related proteins; assay type: cell-based
Protocol: The cells were seeded and cultured. Targeting peptide was diluted with culture medium. Appropriate concentration of DTX was also prepared for the seeded cells. Equivalent culture medium was added as negative control group, 1×10^−9 M targeting peptide solution added as Peptide group, 10^−9 M DTX added as DTX group, 10^−9 M targeting peptide and […] added as combination group (DTX+P). The cells were incubated at 37° C., 5% CO2 for 6 h to analyze the apoptosis by Annexin V method. The protein was extracted to measure the expression of apoptosis related proteins.

[7] = tested on: HSP90; experiment: Western blotting of HSP90 expression in A549 cells; assay type: cell-based, human; conditions: 48 h
Protocol: • (1) lung adenocarcinoma A549 cells were trypsinized and then centrifuged at 800×g for 5 min. The precipitate was re-suspended with PBS and adjusted to 1×10^6 cells/ml. • (2) the cells were seeded into 6-well plate and 2 ml culture medium was added. Then the cells were incubated at 37° C., 5% CO2 overnight. • (3) The peptide was diluted with medium and 300 μl solution was added to each well with a final concentration of 1×10^−4 M. Equal volume of medium was added to the negative well. Triple wells were set for each group and experiment was repeated three times. The plate was incubated at 37° C., 5% CO2 for 48 h. Protein was extracted and subjected to Western blotting analysis.

Compound	IC50 [1]	IC50 [2]	IC50 [3]	expression of autophagic Beclin1 and LC3, single agent [4]	effect on tumor growth [5]	apoptosis (Annexin V), peptide alone ([6]; 6 h, 1×10^−9 M targeting peptide)	apoptosis (Annexin V), peptide combined with DTX ([6]; 6 h, combination group (DTX+P))	caspase-3 cleavage, peptide alone ([6]; Western blotting)	caspase-3 cleavage, peptide combined with DTX ([6]; Western blotting, compared with DTX alone)	expression of HSP90 [7]	Beclin1 expression and conversion of LC3-I to LC3-II, DTX and targeting peptide simultaneously added ([4]; combination group (DTX+P), compared with DTX treatment only)
COc1ccc2c(c1)C(=O)c1c(O)c3c(c(O)c1C2=O)C[C@@](O)(C(=O)COC(=O)CCC(=O)N[C@@H](CC(C)C)C(=O)N1CCC[C@H]1C(=O)N[C@@H](CC(C)C)C(=O)N[C@H](C(=O)N1CCC[C@H]1C(=O)N[C@@H](CC(C)C)C(=O)N1CCC[C@H]1C(=O)O)[C@@H](C)O)C[C@@H]3OC1CC(N)C(O)C(C)O1 (stereo partly drawn) [DOX-OH-P7] (HELM PEPTIDE1{[COc1ccc2c(c1)C(=O)c1c(O)c3c(c(O)c1C2=O)C[C@@](O)(C(=O)COC(=O)CCC(=O)[*:2])C[C@@H]3OC1CC(N)C(O)C(C)O1].L.P.L.T.P.L.P}$$$$V2.0)	6.2 nM	18.1 nM	28.4 nM								
CC(=O)O[C@@]12CO[C@@H]1C[C@H](O)[C@@]1(C)C(=O)[C@H](O)C3=C(C)[C@@H](OC(=O)[C@H](O)[C@@H](NC(=O)OC(C)(C)C)c4ccccc4)C[C@@](O)([C@@H](OC(=O)c4ccccc4)[C@H]21)C3(C)C [DTX, Docetaxel, reference compound]				enhanced the expression the Beclin 1 and conversion of LC3-I to LC3-II	obvious inhibitory effects on the tumor growth						
LPLTPLP (SEQ ID No: 1) [targeting peptide]				did not affect the expression of these proteins		induced apoptosis	further promoted apoptosis when combined with DTX	induce caspase-3 cleavage	the cleavage was further enhanced when combined with DTX compared with DTX alone	effectively down regulated the expression of HSP90 in a dose-dependent manner	significantly inhibited the autophagy induced by DTX
